Data reported in article PMC4222410, “Gold(I)-catalysed synthesis of a furan analogue of thiamine pyrophosphate” (Beilstein Journal of Organic Chemistry, 2014).

Target: T1, pyruvate decarboxylase (ZmPDC) (Zymomonas mobilis, UniProt P06672)
T1 construct: gene pdc; N-terminal His6-tag, pET28a, overexpressed in E. coli; tetramer (dimer of dimers)
Experiment: coupled PDC/ADH assay (NADH, […] nm); time-course inactivation of apo-PDC and equilibrium competition with ThDP
Assay type: biochemical

T1 sequence (P06672 whole entry): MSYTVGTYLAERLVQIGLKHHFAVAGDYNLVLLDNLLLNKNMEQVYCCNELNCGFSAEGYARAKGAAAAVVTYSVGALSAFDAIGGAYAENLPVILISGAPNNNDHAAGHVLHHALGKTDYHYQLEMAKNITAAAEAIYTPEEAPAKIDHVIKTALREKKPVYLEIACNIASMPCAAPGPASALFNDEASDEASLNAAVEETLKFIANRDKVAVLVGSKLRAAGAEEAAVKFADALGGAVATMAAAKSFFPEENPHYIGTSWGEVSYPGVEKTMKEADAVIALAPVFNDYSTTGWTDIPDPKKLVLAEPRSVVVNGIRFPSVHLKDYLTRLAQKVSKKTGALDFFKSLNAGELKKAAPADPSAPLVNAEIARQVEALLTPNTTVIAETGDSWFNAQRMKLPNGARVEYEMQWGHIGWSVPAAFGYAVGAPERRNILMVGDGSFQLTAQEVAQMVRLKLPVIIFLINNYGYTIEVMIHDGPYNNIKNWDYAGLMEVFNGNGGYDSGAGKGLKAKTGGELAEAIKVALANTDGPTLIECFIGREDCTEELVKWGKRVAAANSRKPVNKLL

- Ki: 0.0325 nM
SMILES: Cc1ncc(Cc2coc(CCOP(=O)(O)OP(=O)(O)O)c2)c(N)n1 [compound 17, furan analogue of ThDP]
